Data as given in ChEMBL document CHEMBL4507303, “Data for DCP probe TP-004” (2021).

What was measured:
[1] = molecular target: Phosphatidylinositol 4-kinase beta (Homo sapiens) (UniProt Q9UBF8); conditions: Compound concentration 1000.0 nM
[2] = test system: Proto-oncogene tyrosine-protein kinase receptor Ret (Homo sapiens), P07949 [V804M]; conditions: Compound concentration 1000.0 nM
[3] = molecular target: G protein-coupled receptor kinase 3 (Homo sapiens) (UniProt P35626); conditions: Compound concentration 1000.0 nM
[4] = molecular target: Cyclin-dependent kinase 8 (Homo sapiens) (UniProt P49336); conditions: Compound concentration 1000.0 nM
[5] = molecular target: Bone morphogenetic protein receptor type-1B (Homo sapiens) (UniProt O00238); conditions: Compound concentration 1000.0 nM
[6] = molecular target: Alpha-2B adrenergic receptor (Homo sapiens) (UniProt P18089); conditions: Compound concentration 10.0 uM
Alpha-2B adrenergic receptor (Homo sapiens), sequence (P18089 whole entry, canonical isoform): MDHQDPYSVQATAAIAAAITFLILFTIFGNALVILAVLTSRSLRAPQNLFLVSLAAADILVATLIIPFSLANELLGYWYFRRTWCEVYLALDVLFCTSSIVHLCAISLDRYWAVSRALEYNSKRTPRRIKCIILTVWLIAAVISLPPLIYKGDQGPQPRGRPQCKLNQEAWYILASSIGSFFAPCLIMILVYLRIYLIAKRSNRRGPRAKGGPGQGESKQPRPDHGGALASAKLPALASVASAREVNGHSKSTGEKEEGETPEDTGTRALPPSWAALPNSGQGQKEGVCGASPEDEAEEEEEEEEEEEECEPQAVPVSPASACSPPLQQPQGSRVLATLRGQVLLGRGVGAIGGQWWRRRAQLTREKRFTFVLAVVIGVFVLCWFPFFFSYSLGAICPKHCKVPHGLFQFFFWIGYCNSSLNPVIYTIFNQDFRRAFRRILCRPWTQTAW

[7] = molecular target: Casein kinase I isoform gamma-3 (Homo sapiens) (UniProt Q9Y6M4); conditions: Compound concentration 1000.0 nM
[8] = molecular target: Serine/threonine-protein kinase Nek3 (Homo sapiens) (UniProt P51956); conditions: Compound concentration 1000.0 nM
Serine/threonine-protein kinase Nek3 (Homo sapiens), sequence (P51956 whole entry): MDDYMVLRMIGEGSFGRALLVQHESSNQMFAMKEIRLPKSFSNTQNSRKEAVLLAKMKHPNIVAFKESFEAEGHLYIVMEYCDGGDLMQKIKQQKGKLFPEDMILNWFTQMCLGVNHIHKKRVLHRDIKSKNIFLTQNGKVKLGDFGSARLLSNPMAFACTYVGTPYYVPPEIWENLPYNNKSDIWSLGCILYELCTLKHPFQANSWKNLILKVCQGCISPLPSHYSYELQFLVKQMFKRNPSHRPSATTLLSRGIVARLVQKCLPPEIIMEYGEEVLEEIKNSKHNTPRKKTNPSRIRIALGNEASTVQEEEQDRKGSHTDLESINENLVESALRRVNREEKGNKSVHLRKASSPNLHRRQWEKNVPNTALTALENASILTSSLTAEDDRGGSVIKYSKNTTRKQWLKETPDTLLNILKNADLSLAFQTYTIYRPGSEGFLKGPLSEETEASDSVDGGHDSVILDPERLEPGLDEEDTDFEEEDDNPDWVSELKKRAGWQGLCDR

[9] = molecular target: Inhibitor of nuclear factor kappa-B kinase subunit alpha (Homo sapiens) (UniProt O15111); conditions: Compound concentration 1000.0 nM
[10] = molecular target: Serine/threonine-protein kinase PLK3 (Homo sapiens) (UniProt Q9H4B4); conditions: Compound concentration 1000.0 nM
[11] = molecular target: Muscarinic acetylcholine receptor M2 (Homo sapiens) (UniProt P08172); conditions: Compound concentration 10.0 uM
[12] = molecular target: RAF proto-oncogene serine/threonine-protein kinase (Homo sapiens) (UniProt P04049); conditions: Compound concentration 1000.0 nM
[13] = molecular target: Misshapen-like kinase 1 (Homo sapiens) (UniProt Q8N4C8); conditions: Compound concentration 1000.0 nM
[14] = molecular target: Phosphatidylinositol 5-phosphate 4-kinase type-2 gamma (Homo sapiens) (UniProt Q8TBX8); conditions: Compound concentration 1000.0 nM
[15] = molecular target: Insulin receptor-related protein (Homo sapiens) (UniProt P14616); conditions: Compound concentration 1000.0 nM
[16] = molecular target: Cyclin-dependent kinase 4 (Homo sapiens) (UniProt P11802); conditions: Compound concentration 1000.0 nM
Cyclin-dependent kinase 4 (Homo sapiens), sequence (P11802 whole entry): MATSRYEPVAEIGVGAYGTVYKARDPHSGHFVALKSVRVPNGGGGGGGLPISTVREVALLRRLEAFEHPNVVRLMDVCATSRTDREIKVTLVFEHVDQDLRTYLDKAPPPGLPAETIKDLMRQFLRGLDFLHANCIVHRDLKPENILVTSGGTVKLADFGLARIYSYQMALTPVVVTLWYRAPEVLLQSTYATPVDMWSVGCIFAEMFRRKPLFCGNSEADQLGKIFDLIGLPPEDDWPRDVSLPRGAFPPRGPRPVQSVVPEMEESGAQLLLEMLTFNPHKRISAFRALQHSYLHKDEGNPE

[17] = molecular target: Serine/threonine-protein kinase Nek7 (Homo sapiens) (UniProt Q8TDX7); conditions: Compound concentration 1000.0 nM
Serine/threonine-protein kinase Nek7 (Homo sapiens), sequence (Q8TDX7 whole entry, looked up, canonical isoform): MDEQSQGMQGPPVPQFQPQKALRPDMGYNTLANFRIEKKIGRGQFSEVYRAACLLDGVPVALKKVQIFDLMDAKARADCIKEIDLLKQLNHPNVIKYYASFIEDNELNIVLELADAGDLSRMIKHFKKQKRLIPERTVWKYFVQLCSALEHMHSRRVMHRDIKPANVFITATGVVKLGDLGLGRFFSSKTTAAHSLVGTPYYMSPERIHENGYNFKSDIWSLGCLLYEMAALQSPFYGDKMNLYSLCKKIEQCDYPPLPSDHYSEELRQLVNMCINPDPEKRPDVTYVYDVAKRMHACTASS

[18] = test system: Phosphatidylinositol 4,5-bisphosphate 3-kinase catalytic subunit alpha isoform (Homo sapiens), P42336 [H1047L]; conditions: Compound concentration 1000.0 nM
[19] = molecular target: Protein-tyrosine kinase 6 (Homo sapiens) (UniProt Q13882); conditions: Compound concentration 1000.0 nM
[20] = molecular target: Interferon-induced, double-stranded RNA-activated protein kinase (Homo sapiens) (UniProt P19525); conditions: Compound concentration 1000.0 nM
[21] = molecular target: Proto-oncogene tyrosine-protein kinase receptor Ret (Homo sapiens) (UniProt P07949); conditions: Compound concentration 1000.0 nM
[22] = test system: Tyrosine-protein kinase ABL1 (Homo sapiens), P00519 [F317I]; conditions: Compound concentration 1000.0 nM
[23] = molecular target: Rho-associated protein kinase 1 (Homo sapiens) (UniProt Q13464); conditions: Compound concentration 1000.0 nM
Rho-associated protein kinase 1 (Homo sapiens), sequence (Q13464 2-1354 limits assumed): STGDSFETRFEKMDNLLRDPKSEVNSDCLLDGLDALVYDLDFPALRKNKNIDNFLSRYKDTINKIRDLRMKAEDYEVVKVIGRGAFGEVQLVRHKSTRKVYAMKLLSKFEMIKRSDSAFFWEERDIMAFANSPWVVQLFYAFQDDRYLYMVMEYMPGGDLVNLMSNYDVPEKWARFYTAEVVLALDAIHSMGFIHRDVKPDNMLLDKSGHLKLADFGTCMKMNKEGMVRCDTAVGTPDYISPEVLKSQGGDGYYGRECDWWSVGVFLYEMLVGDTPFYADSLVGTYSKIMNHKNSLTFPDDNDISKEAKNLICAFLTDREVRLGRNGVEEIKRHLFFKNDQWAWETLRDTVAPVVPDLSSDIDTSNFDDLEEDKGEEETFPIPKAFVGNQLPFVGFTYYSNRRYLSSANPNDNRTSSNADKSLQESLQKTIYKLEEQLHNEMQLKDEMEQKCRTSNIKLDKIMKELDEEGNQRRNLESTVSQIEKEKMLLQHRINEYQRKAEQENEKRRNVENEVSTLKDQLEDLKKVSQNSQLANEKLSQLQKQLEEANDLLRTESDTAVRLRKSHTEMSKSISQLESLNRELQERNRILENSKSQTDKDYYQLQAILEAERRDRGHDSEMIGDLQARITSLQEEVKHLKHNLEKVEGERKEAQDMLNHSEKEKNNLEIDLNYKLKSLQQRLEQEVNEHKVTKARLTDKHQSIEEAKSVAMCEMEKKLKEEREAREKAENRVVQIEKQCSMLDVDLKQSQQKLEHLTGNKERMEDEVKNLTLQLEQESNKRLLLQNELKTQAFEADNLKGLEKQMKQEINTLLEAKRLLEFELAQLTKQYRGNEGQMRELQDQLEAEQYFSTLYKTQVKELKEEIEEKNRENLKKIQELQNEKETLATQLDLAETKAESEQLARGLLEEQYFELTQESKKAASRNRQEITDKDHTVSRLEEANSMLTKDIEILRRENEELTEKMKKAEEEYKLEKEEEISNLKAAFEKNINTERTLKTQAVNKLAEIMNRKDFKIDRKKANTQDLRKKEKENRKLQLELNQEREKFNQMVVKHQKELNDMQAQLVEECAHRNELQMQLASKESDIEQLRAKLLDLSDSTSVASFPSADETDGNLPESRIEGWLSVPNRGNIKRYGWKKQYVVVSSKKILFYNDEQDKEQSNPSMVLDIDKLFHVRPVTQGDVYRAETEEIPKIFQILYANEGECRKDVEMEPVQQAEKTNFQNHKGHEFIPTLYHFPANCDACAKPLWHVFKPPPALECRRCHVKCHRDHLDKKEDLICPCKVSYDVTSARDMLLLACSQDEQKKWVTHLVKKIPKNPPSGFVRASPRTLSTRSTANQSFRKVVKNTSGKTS

[24] = molecular target: Mitogen-activated protein kinase 14 (Homo sapiens) (UniProt Q16539); conditions: Compound concentration 1000.0 nM
Mitogen-activated protein kinase 14 (Homo sapiens), sequence (Q16539 whole entry): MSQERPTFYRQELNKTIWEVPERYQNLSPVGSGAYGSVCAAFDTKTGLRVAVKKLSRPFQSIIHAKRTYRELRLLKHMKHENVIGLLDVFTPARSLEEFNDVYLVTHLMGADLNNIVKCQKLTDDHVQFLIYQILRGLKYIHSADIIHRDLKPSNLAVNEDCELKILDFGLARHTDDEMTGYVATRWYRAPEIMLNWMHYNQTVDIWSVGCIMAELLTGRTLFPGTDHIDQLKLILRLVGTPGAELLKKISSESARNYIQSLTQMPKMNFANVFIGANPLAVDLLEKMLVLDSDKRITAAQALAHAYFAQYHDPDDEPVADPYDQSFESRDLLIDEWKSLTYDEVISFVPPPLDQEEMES

[25] = molecular target: Mitogen-activated protein kinase kinase kinase 3 (Homo sapiens) (UniProt Q99759); conditions: Compound concentration 1000.0 nM
[26] = molecular target: Dual specificity mitogen-activated protein kinase kinase 1 (Homo sapiens) (UniProt Q02750); conditions: Compound concentration 1000.0 nM
[27] = molecular target: Serine/threonine-protein kinase haspin (Homo sapiens) (UniProt Q8TF76); conditions: Compound concentration 1000.0 nM
[28] = molecular target: Serine/threonine-protein kinase ICK (Homo sapiens) (UniProt Q9UPZ9); conditions: Compound concentration 1000.0 nM
[29] = molecular target: Rhodopsin kinase GRK7 (Homo sapiens) (UniProt Q8WTQ7); conditions: Compound concentration 1000.0 nM
Rhodopsin kinase GRK7 (Homo sapiens), sequence (Q8WTQ7 whole entry): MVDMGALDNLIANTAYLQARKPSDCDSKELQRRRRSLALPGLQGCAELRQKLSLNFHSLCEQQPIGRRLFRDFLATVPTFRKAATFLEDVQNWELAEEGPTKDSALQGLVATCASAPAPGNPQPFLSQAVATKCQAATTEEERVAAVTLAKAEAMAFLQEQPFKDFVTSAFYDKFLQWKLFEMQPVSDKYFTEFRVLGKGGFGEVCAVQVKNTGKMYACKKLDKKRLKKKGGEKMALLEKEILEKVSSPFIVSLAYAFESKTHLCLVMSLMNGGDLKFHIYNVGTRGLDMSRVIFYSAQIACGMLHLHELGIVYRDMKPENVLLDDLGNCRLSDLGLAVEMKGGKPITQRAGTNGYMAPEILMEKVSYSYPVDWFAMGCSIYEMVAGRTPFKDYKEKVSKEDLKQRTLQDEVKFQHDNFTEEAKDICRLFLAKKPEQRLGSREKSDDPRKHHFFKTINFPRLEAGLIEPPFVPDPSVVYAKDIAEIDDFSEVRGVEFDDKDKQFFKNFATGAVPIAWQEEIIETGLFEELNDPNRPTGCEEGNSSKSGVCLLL

[30] = test system: Mast/stem cell growth factor receptor Kit (Homo sapiens), P10721 [D816V]; conditions: Compound concentration 1000.0 nM
[31] = molecular target: Ribosomal protein S6 kinase alpha-6 (Homo sapiens) (UniProt Q9UK32); conditions: Compound concentration 1000.0 nM
[32] = molecular target: Cyclin-dependent kinase 3 (Homo sapiens) (UniProt Q00526); conditions: Compound concentration 1000.0 nM
Cyclin-dependent kinase 3 (Homo sapiens), sequence (Q00526 whole entry, looked up): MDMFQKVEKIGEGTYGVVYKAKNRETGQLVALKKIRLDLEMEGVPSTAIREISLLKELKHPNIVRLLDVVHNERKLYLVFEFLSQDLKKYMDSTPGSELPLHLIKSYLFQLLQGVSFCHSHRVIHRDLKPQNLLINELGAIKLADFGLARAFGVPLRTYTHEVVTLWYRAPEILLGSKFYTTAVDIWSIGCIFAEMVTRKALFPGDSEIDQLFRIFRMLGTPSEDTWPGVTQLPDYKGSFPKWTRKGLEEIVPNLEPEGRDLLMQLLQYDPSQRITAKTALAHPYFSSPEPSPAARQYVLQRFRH

[33] = molecular target: Dual specificity tyrosine-phosphorylation-regulated kinase 2 (Homo sapiens) (UniProt Q92630); conditions: Compound concentration 1000.0 nM
[34] = test system: Tyrosine-protein kinase ABL1 (Homo sapiens), P00519 [H396P]; conditions: Compound concentration 1000.0 nM
[35] = molecular target: cAMP-dependent protein kinase catalytic subunit PRKX (Homo sapiens) (UniProt P51817); conditions: Compound concentration 1000.0 nM
[36] = molecular target: Fibroblast growth factor receptor 2 (Homo sapiens) (UniProt P21802); conditions: Compound concentration 1000.0 nM
[37] = molecular target: Mu-type opioid receptor (Homo sapiens) (UniProt P35372); conditions: Compound concentration 10.0 uM
Mu-type opioid receptor (Homo sapiens), sequence (P35372 whole entry): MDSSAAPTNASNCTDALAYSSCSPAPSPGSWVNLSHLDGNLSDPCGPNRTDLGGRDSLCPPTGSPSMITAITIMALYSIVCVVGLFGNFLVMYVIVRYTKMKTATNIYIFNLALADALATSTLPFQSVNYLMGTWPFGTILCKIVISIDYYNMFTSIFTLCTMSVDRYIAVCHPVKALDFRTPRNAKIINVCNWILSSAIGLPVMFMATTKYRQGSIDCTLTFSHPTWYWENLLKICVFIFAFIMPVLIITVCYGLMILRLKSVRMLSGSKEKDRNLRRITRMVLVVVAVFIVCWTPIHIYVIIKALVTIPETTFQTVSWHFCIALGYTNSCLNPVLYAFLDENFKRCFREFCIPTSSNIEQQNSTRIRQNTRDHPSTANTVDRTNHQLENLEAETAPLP

[38] = molecular target: Serine/threonine-protein kinase ULK3 (Homo sapiens) (UniProt Q6PHR2); conditions: Compound concentration 1000.0 nM
[39] = molecular target: Dual specificity mitogen-activated protein kinase kinase 6 (Homo sapiens) (UniProt P52564); conditions: Compound concentration 1000.0 nM
[40] = test system: Phosphatidylinositol 4,5-bisphosphate 3-kinase catalytic subunit alpha isoform (Homo sapiens), P42336 [E545A]; conditions: Compound concentration 1000.0 nM
[41] = molecular target: Receptor tyrosine-protein kinase erbB-4 (Homo sapiens) (UniProt Q15303); conditions: Compound concentration 1000.0 nM
[42] = molecular target: Myosin-IIIb (Homo sapiens) (UniProt Q8WXR4); conditions: Compound concentration 1000.0 nM
[43] = molecular target: Serine/threonine-protein kinase pim-1 (Homo sapiens) (UniProt P11309); conditions: Compound concentration 1000.0 nM
Serine/threonine-protein kinase pim-1 (Homo sapiens), sequence (P11309 whole entry, looked up): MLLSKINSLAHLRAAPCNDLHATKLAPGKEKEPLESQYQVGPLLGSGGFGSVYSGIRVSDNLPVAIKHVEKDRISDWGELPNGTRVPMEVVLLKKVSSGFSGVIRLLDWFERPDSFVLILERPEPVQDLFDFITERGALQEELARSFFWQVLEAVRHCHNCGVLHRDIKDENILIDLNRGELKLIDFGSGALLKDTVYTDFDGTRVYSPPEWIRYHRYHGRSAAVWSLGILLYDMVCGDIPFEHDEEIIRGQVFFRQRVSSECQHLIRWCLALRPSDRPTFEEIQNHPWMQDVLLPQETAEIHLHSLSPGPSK

[44] = molecular target: 5'-AMP-activated protein kinase catalytic subunit alpha-2 (Homo sapiens) (UniProt P54646); conditions: Compound concentration 1000.0 nM
[45] = molecular target: Phosphorylase b kinase gamma catalytic chain, skeletal muscle/heart isoform (Homo sapiens) (UniProt Q16816); conditions: Compound concentration 1000.0 nM

Cc1nc(N2CC[C@@H](O)C2)ncc1-c1cc(C(F)(F)F)cc2[nH]ncc12 [TP-004]
inactive: residual activity [1] 53% | residual activity [2] 96% | residual activity [3] 87% | residual activity [4] 88% | residual activity [5] 60% | inhibition [6] 12.5% | residual activity [7] 74% | residual activity [8] 60% | residual activity [9] 76% | residual activity [10] 78% | inhibition [11] -8.94% | residual activity [12] 100% | residual activity [13] 61% | residual activity [14] 100% | residual activity [15] 87% | residual activity [16] 71% | residual activity [17] 97% | residual activity [18] 93% | residual activity [19] 89% | residual activity [20] 100% | residual activity [21] 84% | residual activity [22] 87% | residual activity [23] 91% | residual activity [24] 100% | residual activity [25] 82% | residual activity [26] 83% | residual activity [27] 66% | residual activity [28] 100% | residual activity [29] 70% | residual activity [30] 100% | residual activity [31] 51% | residual activity [32] 83% | residual activity [33] 79% | residual activity [34] 61% | residual activity [35] 97% | residual activity [36] 100% | inhibition [37] 7.79% | residual activity [38] 78% | residual activity [39] 100% | residual activity [40] 97% | residual activity [41] 87% | residual activity [42] 93% | residual activity [43] 100% | residual activity [44] 100% | residual activity [45] 81%
